Assay results taken from patent US20250009632A1, “HEIGHT-ADJUSTABLE SPRINKLER” (BTGIN CO., LTD., priority 2021, published 2025).

Columns and labels:
[1] = tested on: S. mutans; test: Analysis of dental plaque reduction (S. mutans attached to glass tube wall, absorbance at 550 nm); format: cell-based, Streptococcus mutans
Protocol: • 1) A brain heart infusion (BHI) broth (5 ml) containing 1% sucrose was added in 50 ml glass tube, and 50 μl of each of sample extracts by concentrations shown in Table 2 below was added. For a control group, sterilized water was used instead of sample extracts. • 2) S. mutans was inoculated to reach 10^5. • 3) The glass tube was cultured statically in an incubator at 37° C. for 24 hours while tilted at 30°. • 4) After culturing, 5 ml of 0.5 M NaOH solution was added to suspend the cells attached to the wall. • 5) One milliliter of suspension was taken and measured for absorbance at 550 nm. S. mutans strain was cultured statically for 24 hours after inoculation while tilted at 30°. When the culture medium was carefully poured out after the static culture, it was observed that bacteria were attached to the wall of the glass tube (FIG. 1, red arrow). Thereafter, the bacteria were suspended by addition of 0.5 M NaOH, and 1 ml of the suspended solution was measured for absorbance at 550 nm. As a result, there was a reduction in dental plaque from a BTEX-K concentration of 50 μg/ml.

[2] = tested on: S. mutans; test: Amount of organic acid produced in dental plaque (HPLC of S. mutans culture medium); format: cell-based, Streptococcus mutans; conditions: 48 h culture, high concentration (100 μg/ml)
Protocol: • 1) To a brain heart infusion (BHI) broth (2 ml), 20 μl of each of sample extracts by concentrations in Table 3 below was added. For a control group, sterilized water was used instead of sample extracts. • 2) S. mutans was inoculated to reach 10^5-10^6. • 3) The cells were cultured in an incubator at 37° C. for 48 hours. • 4) The amount of the acid secreted in the medium was measured using HPLC.
**HPLC: analyzed by the joint equipment research lab of Dankook University Industry-Academia Cooperation (Citric, pyruvic, succinic, lactic, formic, acetic, propionic, isobutyric, butyric, and isovaleric acid).
S. mutans strain was inoculated into 2 ml of the brain heart infusion (BHI) liquid medium at a concentration of 1×10^5 CFU/ml, and a predetermined concentration of each sample was injected, followed by culturing for 48 hours. The culture was centrifuged at 13,000 rpm for 5 minutes, and then the supernatant was transferred to a new tube and filtered with a 0.45 μm syringe filter. Thereafter, HPLC analysis was performed. HPLC analysis conditions are as follows. Mobile phase (Isocratic elution): 10 mM potassium phosphate monobasic (pH 3, a phosphoric acid salt)/MeOH=(98/2), Column oven Temp.: 30° C., flow rate: 1 ml/min, wavelength: 220 nm, and injection amount: 10 μl

**Q.** What does the source list for `CC(C)=CCC[C@](C)(O[C@@H]1O[C@H](CO)[C@@H](O)[C@H](O)[C@H]1O)[C@H]1CC[C@]2(C)[C@@H]1[C@H](O)C[C@@H]1[C@@]3(C)CC[C@H](O)C(C)(C)[C@@H]3CC[C@]12C` [ginsenoside compound K]?
**A.** growth of S. mutans strain ([1]; at 100 μg/ml, as seen in the dental plaque reduction experiment): inhibited; concentration at which dental plaque reduction was observed ([1]; summary statement, absorbance at 550 nm): 20 µg/mL; reduction in lactic acid content compared to the control group ([2]; HPLC, p<0.0001): approximately 2 fold; HPLC peak at retention time of around 4.6 minutes (lactic acid) ([2]; vs control): decreased
